Common to all, as to assay type: cell-based
One experiment has as its target T1, human TLR7 (Homo sapiens, UniProt Q9NYK1).
T1 construct: host or cells: HEK-Blue cells
T1 sequence (Q9NYK1 27-1049): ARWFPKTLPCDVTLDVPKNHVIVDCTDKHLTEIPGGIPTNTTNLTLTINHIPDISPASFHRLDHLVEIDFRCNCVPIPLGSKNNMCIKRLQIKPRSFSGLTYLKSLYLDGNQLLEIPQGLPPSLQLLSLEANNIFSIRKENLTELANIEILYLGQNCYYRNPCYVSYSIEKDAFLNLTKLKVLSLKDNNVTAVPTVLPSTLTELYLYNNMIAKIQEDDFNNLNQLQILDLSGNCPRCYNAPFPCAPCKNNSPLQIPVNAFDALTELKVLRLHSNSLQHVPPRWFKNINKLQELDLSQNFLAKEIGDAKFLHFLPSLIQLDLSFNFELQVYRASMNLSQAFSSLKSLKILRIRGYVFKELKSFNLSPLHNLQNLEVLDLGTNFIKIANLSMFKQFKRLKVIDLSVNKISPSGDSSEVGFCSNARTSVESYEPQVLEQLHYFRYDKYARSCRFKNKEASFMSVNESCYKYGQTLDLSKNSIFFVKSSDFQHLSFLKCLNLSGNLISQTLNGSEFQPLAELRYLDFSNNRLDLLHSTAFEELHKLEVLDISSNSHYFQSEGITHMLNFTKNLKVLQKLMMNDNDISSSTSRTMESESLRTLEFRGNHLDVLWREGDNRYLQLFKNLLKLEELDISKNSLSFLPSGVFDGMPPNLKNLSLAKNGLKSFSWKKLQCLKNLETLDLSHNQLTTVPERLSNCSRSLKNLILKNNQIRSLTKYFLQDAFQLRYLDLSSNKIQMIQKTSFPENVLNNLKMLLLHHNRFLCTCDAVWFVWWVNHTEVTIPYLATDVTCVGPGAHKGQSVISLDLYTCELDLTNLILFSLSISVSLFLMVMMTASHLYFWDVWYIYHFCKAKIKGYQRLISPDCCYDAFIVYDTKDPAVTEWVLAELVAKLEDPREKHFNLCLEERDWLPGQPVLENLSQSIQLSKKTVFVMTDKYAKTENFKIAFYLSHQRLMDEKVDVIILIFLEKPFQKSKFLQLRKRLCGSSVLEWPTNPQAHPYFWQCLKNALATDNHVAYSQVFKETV
The experiment is described as follows: TLR7 inhibition reporter assay (HEK-Blue cells, SEAP reporter). Conditions: HEK-Blue cells overexpressing human TLR7; stimulated with gardiquimod 7.5 μM; SEAP read after 22 hour; dose range 0.05 nM-50 μM. In short, it runs like this: (§1)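 HEK-Blue cells with NF-κB/AP-1-driven SEAP pre-treated 30 min with compounds (0.05 nM-50 μM), then stimulated with gardiquimod 7.5 μM (TLR7), R848 15.9 μM (TLR8) or ODN2006 5 nM (TLR9). SEAP read after 22 h at 37° C; % inhibition relative to agonist+DMSO and reference-inhibitor wells.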

The target of another experiment is T2, human TLR8 (Homo sapiens, UniProt Q9NR97).
T2 construct: host or cells: HEK-Blue cells
T2 sequence (Q9NR97 27-1041): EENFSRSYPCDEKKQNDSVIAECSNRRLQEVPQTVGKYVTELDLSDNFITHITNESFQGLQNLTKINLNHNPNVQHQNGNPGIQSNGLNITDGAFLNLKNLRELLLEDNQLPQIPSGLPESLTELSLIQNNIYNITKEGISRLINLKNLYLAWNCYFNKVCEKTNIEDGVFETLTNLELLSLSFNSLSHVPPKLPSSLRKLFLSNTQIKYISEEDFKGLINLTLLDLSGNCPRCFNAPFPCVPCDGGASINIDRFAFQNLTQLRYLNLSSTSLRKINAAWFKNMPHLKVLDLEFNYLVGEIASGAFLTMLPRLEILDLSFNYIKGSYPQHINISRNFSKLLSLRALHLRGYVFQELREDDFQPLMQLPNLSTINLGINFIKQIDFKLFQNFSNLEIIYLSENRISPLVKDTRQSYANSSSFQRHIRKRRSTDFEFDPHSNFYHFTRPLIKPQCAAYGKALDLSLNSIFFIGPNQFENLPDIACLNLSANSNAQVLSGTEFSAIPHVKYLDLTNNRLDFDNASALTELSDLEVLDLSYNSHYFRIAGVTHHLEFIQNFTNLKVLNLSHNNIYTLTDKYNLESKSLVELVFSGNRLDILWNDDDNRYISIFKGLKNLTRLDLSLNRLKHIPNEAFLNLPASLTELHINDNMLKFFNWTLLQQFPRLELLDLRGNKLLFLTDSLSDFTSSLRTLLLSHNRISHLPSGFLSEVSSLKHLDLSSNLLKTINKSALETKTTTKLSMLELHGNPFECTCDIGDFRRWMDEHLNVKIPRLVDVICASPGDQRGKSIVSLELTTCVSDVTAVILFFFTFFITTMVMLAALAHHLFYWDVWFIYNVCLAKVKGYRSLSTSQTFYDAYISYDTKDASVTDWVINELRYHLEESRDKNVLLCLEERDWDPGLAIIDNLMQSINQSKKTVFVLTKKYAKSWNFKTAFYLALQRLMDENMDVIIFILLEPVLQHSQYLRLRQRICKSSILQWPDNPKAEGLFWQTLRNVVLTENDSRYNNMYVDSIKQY
The experiment is described as follows: TLR8 inhibition reporter assay (HEK-Blue cells, SEAP reporter). Conditions: HEK-Blue cells overexpressing human TLR8; stimulated with R848 15.9 μM; SEAP read after 22 hour; dose range 0.05 nM-50 μM. In short, it runs like this: as §1

A further experiment deals with T3, human TLR9 (Homo sapiens, UniProt Q9NR96).
T3 construct: host or cells: HEK-Blue cells
T3 sequence (Q9NR96 26-1032): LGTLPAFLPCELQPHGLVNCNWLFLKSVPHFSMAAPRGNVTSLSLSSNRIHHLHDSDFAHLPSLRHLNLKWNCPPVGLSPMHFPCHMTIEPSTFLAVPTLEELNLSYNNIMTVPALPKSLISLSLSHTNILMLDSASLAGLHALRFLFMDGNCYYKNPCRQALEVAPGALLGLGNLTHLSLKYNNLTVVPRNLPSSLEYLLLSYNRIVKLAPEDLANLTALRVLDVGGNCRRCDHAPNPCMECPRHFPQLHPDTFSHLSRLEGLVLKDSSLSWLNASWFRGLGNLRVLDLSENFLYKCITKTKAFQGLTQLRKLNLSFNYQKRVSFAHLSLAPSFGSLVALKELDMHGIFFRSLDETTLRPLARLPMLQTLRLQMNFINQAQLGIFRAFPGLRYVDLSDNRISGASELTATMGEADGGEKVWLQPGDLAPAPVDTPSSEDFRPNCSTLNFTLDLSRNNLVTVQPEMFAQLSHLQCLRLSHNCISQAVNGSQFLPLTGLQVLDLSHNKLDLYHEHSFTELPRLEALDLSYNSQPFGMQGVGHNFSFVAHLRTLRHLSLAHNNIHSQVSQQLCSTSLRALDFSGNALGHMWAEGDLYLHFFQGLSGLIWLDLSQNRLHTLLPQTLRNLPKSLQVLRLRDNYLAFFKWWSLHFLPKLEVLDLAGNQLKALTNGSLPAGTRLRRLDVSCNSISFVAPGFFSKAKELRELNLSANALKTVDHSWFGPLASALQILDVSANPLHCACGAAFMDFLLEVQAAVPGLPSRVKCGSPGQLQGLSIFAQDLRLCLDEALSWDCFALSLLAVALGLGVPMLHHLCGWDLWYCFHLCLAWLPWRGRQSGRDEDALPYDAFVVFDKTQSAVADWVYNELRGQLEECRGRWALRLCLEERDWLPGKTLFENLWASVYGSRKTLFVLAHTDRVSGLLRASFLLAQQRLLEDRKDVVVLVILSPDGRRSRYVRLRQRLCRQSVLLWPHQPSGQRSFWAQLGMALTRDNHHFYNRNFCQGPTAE
Briefly: TLR9 inhibition reporter assay (HEK-Blue cells, SEAP reporter). Conditions: HEK-Blue cells overexpressing human TLR9; stimulated with ODN2006 5 nM; SEAP read after 22 hour; dose range 0.05 nM-50 μM. A digest of the protocol: as §1
(In general: In a reporter assay the amount or activity of a reporter protein is the signal.)

As for `CC(C)N1CCN(c2ccc(-c3ccc4[nH]c(=O)c(-c5ccc(N(C)C6CN(C)C6)cc5)cc4c3)cc2)CC1` [Example 51, 3-{4-[methyl(1-methylazetidin-3-yl)amino]phenyl}-6-{4-[4-(propan-2-yl)piperazin-1-yl]phenyl}-1,2-dihydroquinolin-2-one], the IC50 (usually the concentration at which inhibition is half-maximal) at human TLR7 was 1340 nM; against human TLR8, 47000 nM; at human TLR9, 242 nM.

As for `CCC(=O)Nc1ccc(-c2cc3cc(-c4ccc(N5CCN(C(C)C)CC5)cc4)ccc3[nH]c2=O)cc1` [Example 52, N-[4-(2-oxo-6-{4-[4-(propan-2-yl)piperazin-1-yl]phenyl}-1,2-dihydroquinolin-3-yl)phenyl]propanamide], the 50% inhibitory concentration (IC50) against human TLR7 was 15100 nM; at human TLR8 it was at least 50000 nM; against human TLR9, 243 nM.

As for `CC(C)N1CCN(c2ccc(-c3ccc4[nH]c(=O)c(-c5ccc(C(N)=O)cc5)cc4c3)cc2)CC1` [Example 53, 4-(2-oxo-6-{4-[4-(propan-2-yl)piperazin-1-yl]phenyl}-1,2-dihydroquinolin-3-yl)benzamide], the 50% inhibitory concentration (IC50) on human TLR7 is 4520 nM; against human TLR8, 1240 nM; on human TLR9, 257 nM.

Turning to `CNC(=O)c1ccc(-c2cc3cc(-c4ccc(N5CCN(C(C)C)CC5)cc4)ccc3[nH]c2=O)cc1` [Example 54, N-methyl-4-(2-oxo-6-{4-[4-(propan-2-yl)piperazin-1-yl]phenyl}-1,2-dihydroquinolin-3-yl)benzamide], the IC50 at human TLR7 was 13000 nM; at human TLR8, at least 50000 nM; at human TLR9, 379 nM.

Consider `CC(C)N1CCN(c2ccc(-c3ccc4[nH]c(=O)c(-c5ccc(C(=O)N6CCOCC6)cc5)cc4c3)cc2)CC1` [Example 55, 3-[4-(morpholine-4-carbonyl)phenyl]-6-{4-[4-(propan-2-yl)piperazin-1-yl]phenyl}-1,2-dihydroquinolin-2-one], for which the IC50 is at least 50000 nM against human TLR7, at least 50000 nM against human TLR8 and 382 nM against human TLR9.

Consider `CC(C)N1CCN(c2ccc(-c3ccc4[nH]c(=O)c(-c5ccc(N6CCCC6=O)cc5)cc4c3)cc2)CC1` [Example 56, 3-[4-(2-oxopyrrolidin-1-yl)phenyl]-6-{4-[4-(propan-2-yl)piperazin-1-yl]phenyl}-1,2-dihydroquinolin-2-one], for which the IC50 on human TLR7 is 5980 nM; at human TLR8, at least 50000 nM; against human TLR9 it was 400 nM.

Turning to `CC(=O)Nc1ccc(-c2cc3cc(-c4ccc(N5CCN(C(C)C)CC5)cc4)ccc3n(C)c2=O)cc1` [Example 57, N-[4-(1-methyl-2-oxo-6-{4-[4-(propan-2-yl)piperazin-1-yl]phenyl}-1,2-dihydroquinolin-3-yl)phenyl]acetamide], the results for the IC50 against human TLR7, against human TLR8 and at human TLR9 were 1220 nM, 83 nM and 615 nM, respectively.

For the compound `CC(C)N1CCN(c2ccc(-c3ccc4c(c3)cc(-c3ccccc3)c(=O)n4C)cc2)CC1` [Example 58, 1-methyl-3-phenyl-6-{4-[4-(propan-2-yl)piperazin-1-yl]phenyl}-1,2-dihydroquinolin-2-one], the concentration for half-maximal inhibition (IC50) against human TLR7 is 32600 nM; against human TLR8, 1390 nM; against human TLR9, 538 nM.

On to `CC(C)N1CCN(c2ccc(-c3ccc4[nH]c(=O)c(-c5ccc(C(=O)N(C)C)cc5)cc4c3)cc2)CC1` [Example 60, N,N-dimethyl-4-(2-oxo-6-{4-[4-(propan-2-yl)piperazin-1-yl]phenyl}-1,2-dihydroquinolin-3-yl)benzamide], for which the values for the IC50 at human TLR7, against human TLR8 and against human TLR9 were at least 50000 nM, at least 50000 nM and 736 nM, respectively.

Take `CC(C)N1CCN(c2ccc(-c3ccc4[nH]c(=O)c(-c5ccc(N6CC[C@@H](O)C6)cc5)cc4c3)cc2)CC1` [Example 61, 3-{4-[(3R)-3-hydroxypyrrolidin-1-yl]phenyl}-6-{4-[4-(propan-2-yl)piperazin-1-yl]phenyl}-1,2-dihydroquinolin-2-one]: the figures for the IC50 at human TLR7, at human TLR8 and against human TLR9 were at least 50000 nM, at least 50000 nM and 1640 nM, respectively.

Consider `CC(C)N1CCN(c2ccc(-c3ccc4[nH]c(=O)c(-c5ccc(C(=O)O)cc5)cc4c3)cc2)CC1` [Example 62, 4-(2-oxo-6-{4-[4-(propan-2-yl)piperazin-1-yl]phenyl}-1,2-dihydroquinolin-3-yl)benzoic acid], for which the half-inhibitory concentration (IC50) on human TLR7 is at least 50000 nM; on human TLR8, at least 50000 nM; at human TLR9 it was 1760 nM.

On to `CCc1c(-c2ccc(OC)c(OC)c2)c(=O)[nH]c2ccc(C3CCN(C4CCN(C(C)C)CC4)CC3)cc12` [Example 63, 3-(3,4-dimethoxyphenyl)-4-ethyl-6-[1′-(propan-2-yl)-[1,4′-bipiperidine]-4-yl]-1,2-dihydroquinolin-2-one], for which the IC50 against human TLR7 is 2810 nM; against human TLR8, 11000 nM; against human TLR9, 27 nM.

Source of the values: US20260183275A1, “SUBSTITUTED QUINOLONE COMPOUNDS USEFUL AS INHIBITORS OF TLR9” (Bristol-Myers Squibb Company, priority 2022, published 2026).
